Like-named read-outs stand apart in the source and are kept apart here.
How the values were obtained:
Assay type in all cases: cell-based, human
Jurkat cells = experiment: Cell cycle histograms (propidium iodide flow cytometry); details: dCKi 1 µM, 24 h
Method: Cell cycle histograms. Cells were plated at a density of 0.5 x 10^6 cells/mL in respective media or drug treated
media. Following 24 h incubation, cells were harvested and washed twice with PBS twice before staining with
0.5 ml of propidium iodide (Calbiochem, #P3566, 1 µg/mL) solution containing Ribonuclease A and 0.3%
Triton-X 100. The samples were protected from light before acquisition by flow cytometry. […]

CEM cells [1] = experiment: Proliferation assay (CellTiter-Glo, 72 h)
Method: Cells were plated in 384-well plates (1000 cells/well for suspension cell lines and 500 cells/well for adherent cell lines in 30 µl volume). Drugs were serially diluted to the desired concentrations and an equivalent volume of DMSO was added to vehicle control. Ten microliter of the 4× diluted drugs were added to each well. Following 72 h incubation, ATP content was measured using CellTiter-Glo reagent according to manufacturer’s instructions (Promega, CellTiter-Glo Luminescent Cell Viability Assay), and analyzed by SpectraMax luminometer (Molecular Devices). IC50 values, concentrations required to inhibit proliferation by 50% compared to DMSO treated cells, were calculated using Prism 6.0 h (Graphpad Software).

CEM cells [2] = experiment: Cell cycle analysis of asynchronous cells by flow cytometry (S-phase population, S-phase arrest); details: CEM, 24 h
Method: Cell cycle histograms. Cells were plated at a density of 0.5 x 10^6 cells/mL in respective media or drug treated media. Following 24 h incubation, cells were harvested and washed twice with PBS twice before staining with 0.5 ml of propidium iodide (Calbiochem, #P3566, 1 µg/mL) solution containing Ribonuclease A and 0.3% Triton-X 100. The samples were protected from light before acquisition by flow cytometry.
Cell cycle kinetics and cell cycle progression by intracellular detection of DNA-incorporated 5-ethynyl-2-deoxyuridine (EdU). CEM T-ALL cells were plated at a density of 0.5 x 10^6 cells/mL. Cells were pulsed with 10 µM EdU (Invitrogen) for 1 h, washed twice with PBS, and released in fresh media containing 5 µM deoxyribonucleosides, with and without drugs. Cells were collected at different time points following release in fresh media, and then fixed with 4% paraformaldehyde and permeabilized using saponin perm/wash reagent (Invitrogen). Cells were then stained with azide-Alexa Fluor 647 by Click reaction according to manufacturer’s protocol (Invitrogen; Click-iT EdU Flow cytometry kit, #C10634). […]

[3] = Suppl. Fig. 5e, BCX-1777 100 nM

| SMILES | fold higher concentration than 3-AP required to induce S-phase arrest (CEM cells [2]) | IC50 (CEM cells [1]) [µM] | also measured |
| --- | --- | --- | --- |
| O=c1[nH]cnc2c([C@@H]3N[C@H](CO)[C@@H](O)[C@H]3O)c[nH]c12 [BCX-1777, forodesine] | – | – | cells in G2/M (Jurkat cells; [3]): 1.4%; cells in S phase (Jurkat cells; [3]): 40% |
| Cc1cn([C@H]2C[C@H](O)[C@@H](CO)O2)c(=O)[nH]c1=O [dT, thymidine] | 60–100 fold | – | IC50 (CEM cells [1]; Homo sapiens, CCRF-CEM): 159 µM |
| NC(=O)NO [HU, hydroxyurea] | 60–100 fold | 74.5 | – |
| Cc1occc(=O)c1[O-].Cc1occc(=O)c1[O-].Cc1occc(=O)c1[O-].[Ga+3] [GaM, gallium maltolate] | 60–100 fold | 49.8 | – |
| OC[C@H]1O[C@@H](n2cnc3c2NC=NC[C@H]3O)C[C@@H]1O [dCF, Pentostatin] | – | – | cells in G2/M (Jurkat cells; Suppl. Fig. 4e, dCF 10 µM): 6%; cells in S phase (Jurkat cells; Suppl. Fig. 4e, dCF 10 µM): 11% |
